Results as given in PubChem BioAssay (NCI).
Values joined by “and” are separate entries in the source; they are usually repeats but may differ in a detail not shown here. Equal values may be shown once.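 Growth conditions: 96-well plates. Treatment: test compound, 48 hours, 5 concentrations. Analysis: linear interpolation between bracketing concentrations; unreached endpoints set to highest concentration. The concentration for 50% growth inhibition is given as GI50. The concentration for full growth arrest is given as TGI.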

What was measured:
Assay in all cases: NCI tumour cell line growth inhibition, 48 h
[1] = system: HOP-62 NSCLC
[2] = system: UACC-257 melanoma
[3] = system: 786-0 renal
[4] = system: SNB-75 CNS
[5] = system: M14 melanoma
[6] = system: HT29 colon
[7] = system: UO-31 renal
[8] = system: A498 renal
[9] = system: NCI-H226 lung
[10] = system: SF-295 CNS

Row | Structure (SMILES) | GI50 [1] [µM] | TGI [1] [µM] | GI50 [2] [µM] | TGI [2] | GI50 [3] [µM] | TGI [3] | GI50 [4] [µM] | TGI [4] | GI50 [5] [µM] | TGI [5] | GI50 [6] [nM] | TGI [6] | GI50 [7] [µM] | TGI [7] [µM] | GI50 [8] [µM] | TGI [8] | GI50 [9] [µM] | TGI [9] | GI50 [10] [µM] | TGI [10] [µM]
1 | C/C(=C\c1csc(C)n1)[C@@H]1C[C@@H]2O[C@]2(C)CCC[C@H](C)[C@H](O)[C@@H](C)C(=O)C(C)(C)[C@@H](O)CC(=O)N1 | 0.000352 | 0.000508 | 0.000138 | 0.000277 µM | 0.000182 | 0.000356 µM | 0.00161 | 0.048 µM | 0.00154 | 0.011 µM | 0.0823 | 0.000537 µM | 0.000126 | 0.000177 | 0.000104 | 0.000215 µM | 0.000388 | 0.000652 µM | 0.000156 | 0.000423
2 | Cc1cccc(Oc2ccc(Nc3ncnc4ccc(NC(=O)CN(C)C)cc34)cc2Cl)c1 | 1.89 | 4.16 | 1.71 | 3.3 µM | 1.59 | 3.16 µM | 2.01 | 5.05 µM | 1.71 | 3.5 µM | 1760 | 3.77 µM | 1.12 | 2.47 | 1.8 | 9.18 µM | 11.9 | 28.3 µM | 1.66 | 3.2
3 | CC(C)(C)C1CCC(O)(c2ccccc2)CC1 (stereo not given) |  | > 100 |  | > 100 µM and 48.2 µM |  | > 100 µM and 41.6 µM |  | > 100 µM and 60 µM |  | > 100 µM and 42.8 µM |  | > 100 µM and 30.2 µM |  | > 100 |  | > 100 µM and 51.4 µM |  | > 100 µM and 43 µM |  | > 100
4 | COc1cc(NC(=O)COc2ccccc2)c(C(N)=O)cc1OC | 1.75 | 24.3 | > 100 | > 100 µM | 7.32 | 38.8 µM | 0.547 | 11.9 µM | 0.614 | > 100 µM | 437 | > 100 µM | 13.5 | > 100 | 2.77 | 15.4 µM | 42.8 | > 100 µM | 0.93 | 16.6
5 | ON1CCc2c([nH]c3ccccc23)C1c1ccc(Cl)cc1 (stereo not given) |  | > 100 |  | > 100 µM |  | > 100 µM |  | > 100 µM |  | > 100 µM |  | 40.1 µM |  | 91.7 |  | > 100 µM |  | 73 µM |  | 91
6 | O=C1C[C@@H]2OCC=C3C[N+]4([O-])CC[C@]56c7ccccc7N1[C@H]5[C@H]2[C@H]3C[C@@H]64 (stereo not given in full) | > 100 | > 100 | > 100 | > 100 µM | > 100 | > 100 µM | > 100 | > 100 µM | > 100 | > 100 µM | > 100000 | > 100 µM | > 100 | > 100 | > 100 | > 100 µM | > 100 | > 100 µM | > 100 | > 100
7 | CC[C@]12C=CCN3CC[C@@]4(c5ccc(OC)cc5N(C)[C@H]4[C@@](O)(C(=O)OC)[C@@H]1OC(=O)CCCN1CCN(CCCC(=O)O[C@@H]4[C@]5(CC)C=CCN6CC[C@@]7(c8ccc(OC)cc8N(C)[C@H]7[C@@]4(O)C(=O)OC)[C@@H]65)CC1)[C@@H]32 | 1.28 | 2.81 | 1.96 | 3.69 µM | 1.44 | 2.91 µM | 0.564 | 1.95 µM | 1.87 | 3.61 µM | 324 | 1.2 µM | 1.1 | 2.33 | 1.6 | 3.49 µM | 1.73 | 3.47 µM | 1.74 | 3.16
8 | COc1cc2c3c(n(CCCN)c(=O)c2cc1OC)-c1ccc(N)cc1C3=O | 1.55 | 4.92 | 13.7 | 50.3 µM | 1.91 | 5.04 µM | 1.75 | 12.3 µM | 2.21 | 13.7 µM | 2410 | 18.2 µM | 37.2 | > 100 | 1.93 | 9.78 µM | 2.85 | 14.5 µM | 3.75 | 37.3
9 | O=C(O)CSc1cc(NS(=O)(=O)c2ccc(Br)cc2)c2ccccc2c1O | 17.9 | 31.9 | 4.95 | 12.1 µM | 19.9 | 38.3 µM | 24 | 42.4 µM | 15.1 | 29.5 µM | 18100 | 78.1 µM | 12 | 25.2 | 18.3 | 34.7 µM | 20.1 | 44.9 µM | 16 | 30.1
10 | CC1(C)CC2=NO[Se]3=C2C(=NO3)C1 |  | 10.8 |  | 5.64 µM |  | 12.4 µM |  | 6.96 µM |  | 6.25 µM |  | 10.1 µM |  | 8.73 |  | 10.4 µM |  | 11.6 µM |  | 7.6
11 | O=C(/C=C(\[O-])c1ccccc1)CCCCCCC(=O)/C=C(\[O-])c1ccccc1.O=C(/C=C(\[O-])c1ccccc1)CCCCCCC(=O)/C=C(\[O-])c1ccccc1.O=C(/C=C(\[O-])c1ccccc1)CCCCCCC(=O)/C=C(\[O-])c1ccccc1.[Y+3].[Y+3] | 18.8 | > 50 | 17.6 | > 50 µM | 21.7 | > 50 µM | 8.98 | 22.2 µM | > 50 | > 50 µM | > 50000 | > 50 µM | > 50 | > 50 | > 50 | > 50 µM | 39.2 | > 50 µM | > 50 | > 50
12 | CC(=O)O[C@H]([C@H](OC(C)=O)[C@H](C)OC(C)=O)[C@@H](/C=C/[C@H]1CC=CC(=O)O1)OC(C)=O | 48.5 | > 100 | > 100 | > 100 µM | 97.3 | > 100 µM | 22.2 | 61.7 µM | 67.3 | > 100 µM | 55800 | > 100 µM | > 100 | > 100 | 41.4 | > 100 µM | > 100 | > 100 µM | 20.6 | 59.8
13 | CN(c1ccccc1)c1c2ccccc2nc2[nH]c3ccccc3c12 | 1.96 | 5.97 | 6.54 | 21.4 µM | 1.76 | 4.33 µM | 3.04 | 15.1 µM | 2.21 | 4.43 µM | 3830 | > 100 µM | 1.22 | 3.66 | 2.04 | 5.32 µM | 1.91 | 4.44 µM | 2.44 | 5.76
14 | COC(=O)C1CC(=O)O[C@H]1c1ccc(OC)c(OC)c1 (stereo not given in full) |  | > 100 |  | > 100 µM |  | > 100 µM |  | > 100 µM |  | > 100 µM |  | > 100 µM |  | > 100 |  | > 100 µM |  | > 100 µM |  | > 100
15 | OCc1ccc(N2CCc3ccc(F)cc3C2)cc1Cl | 0.29 | 15.5 | 0.0279 | 0.101 µM | 3.11 | 23.8 µM | 11.5 | 25.3 µM | 14.5 | 30 µM | 229 | 6.61 µM | 1.52 | 17.3 | 0.0173 | 0.0751 µM | 0.0267 | 0.114 µM | 0.0728 | 1.96
16 | Cn1cc(-c2ccc3c(c2)ncn3-c2cc(NS(=O)(=O)C3CC3)cc(-c3ccc(F)cc3F)c2)cn1 | 14.1 | > 100 | 27.5 | > 100 µM | 6.05 | > 100 µM | 0.59 | 8.28 µM | 14.9 | > 100 µM | 10300 | 38.3 µM | 0.635 | 36.7 | 0.074 | 0.542 µM | 27 | 94.4 µM | 8.18 | 37.2
17 | Cc1ccc(-c2nc([P+](c3ccccc3)(c3ccccc3)c3ccccc3)c(N3CCOCC3)o2)cc1 | 0.83 | 6.61 | 0.341 | 3.42 µM | 2.54 | 12.7 µM | 0.194 | 1.11 µM | 0.543 | 10.4 µM | 357 | 11 µM | 2.23 | 7.3 | 0.881 | 4.5 µM | 0.724 | 8.03 µM | 1.12 | 4.35
18 | COc1ccc(-c2c(Nc3ccccn3)nc3c(C4=CCCCC4)c(-c4ccccc4)[nH]n3c2=O)cc1 | 3.73 | 22.9 | 5 | 66.3 µM | 2.63 | 16.3 µM | 2.99 | 21.6 µM | 1.23 | > 100 µM | 2620 | > 100 µM | 2.19 | > 100 | 2.01 | 15.4 µM | 2.78 | 17.8 µM | 2.48 | 14
